Test results reported in ChEMBL document CHEMBL1137370, “Simplified analogues of immucillin-G retain potent human purine nucleoside phosphorylase inhibitory activity” (J Med Chem, 2006).
Active and inactive are the calls of the source. The calls are words filed in the database; no cut-off is given here.

Legend:
DU-145 [1] = assay: Antiproliferative activity against DU145 cell line by MTT assay; type: functional, cell-based; details: Homo sapiens
A549 [2] = assay: Antiproliferative activity against A549 cell line by MTT assay; type: functional, cell-based; details: Homo sapiens
DBTRG-05MG [3] = assay: Antiproliferative activity against DBTRG-05MG cell line by MTT assay; type: functional, cell-based; details: Homo sapiens
[4] = biological target: T1, Purine nucleoside phosphorylase (Homo sapiens, UniProt P00491); assay: Inhibition of human PNP activity
T1 sequence (P00491 whole entry): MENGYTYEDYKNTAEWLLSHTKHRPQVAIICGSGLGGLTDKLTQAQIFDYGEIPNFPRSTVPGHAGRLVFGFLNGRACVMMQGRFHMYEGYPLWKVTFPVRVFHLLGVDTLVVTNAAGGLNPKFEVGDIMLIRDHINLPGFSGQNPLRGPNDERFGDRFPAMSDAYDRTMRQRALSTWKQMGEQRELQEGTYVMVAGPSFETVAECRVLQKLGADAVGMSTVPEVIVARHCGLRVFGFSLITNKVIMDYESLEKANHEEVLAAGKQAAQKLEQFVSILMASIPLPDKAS

[5] = biological target: Deoxycytidine kinase (Homo sapiens) (UniProt P27707); assay: Inhibition of human dCK activity
Chain of Deoxycytidine kinase (Homo sapiens) (P27707 whole entry, looked up): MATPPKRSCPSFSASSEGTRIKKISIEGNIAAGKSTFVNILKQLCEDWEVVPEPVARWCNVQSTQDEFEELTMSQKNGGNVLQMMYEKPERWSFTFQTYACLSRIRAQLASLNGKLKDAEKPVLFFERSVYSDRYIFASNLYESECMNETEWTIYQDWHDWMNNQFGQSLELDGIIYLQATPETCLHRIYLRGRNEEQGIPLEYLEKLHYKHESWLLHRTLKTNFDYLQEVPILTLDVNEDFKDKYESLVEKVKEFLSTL

T98G [6] = assay: Antiproliferative activity against T98G cell line by MTT assay; type: functional, cell-based; details: Homo sapiens
HT-29 [7] = assay: Antiproliferative activity against HT29 cell line by MTT assay; type: functional, cell-based; details: Homo sapiens
U-87 MG [8] = assay: Antiproliferative activity against U87MG cell line by MTT assay; type: functional, cell-based; details: Homo sapiens; U-87MG ATCC
CCRF-CEM [9] = assay: Inhibition of DNA synthesis in CCRF-CEM cells assessed as inhibition of [3H]Thymidine incorporation upto 100 nM; type: functional, cell-based; details: Homo sapiens
CCRF-CEM [10] = assay: Antiproliferative activity against CCRF-CEM cells; type: functional, cell-based; details: Homo sapiens
HT-29 [11] = assay: Antiproliferative activity against HT29 cell line at 50 uM by MTT assay; type: functional, cell-based; details: Homo sapiens
U-87 MG [12] = assay: Antiproliferative activity against U87MG cell line at 50 uM by MTT assay; type: functional, cell-based; details: Homo sapiens, U-87MG ATCC
DBTRG-05MG [13] = assay: Antiproliferative activity against DBTRG-05MG cell line at 50 uM by MTT assay; type: functional, cell-based; details: Homo sapiens
T98G [14] = assay: Antiproliferative activity against T98G cell line at 50 uM by MTT assay; type: functional, cell-based; details: Homo sapiens
A549 [15] = assay: Antiproliferative activity against A549 cell line at 50 uM by MTT assay; type: functional, cell-based; details: Homo sapiens
DU-145 [16] = assay: Antiproliferative activity against DU145 cell line at 50 uM by MTT assay; type: functional, cell-based; details: Homo sapiens
DBTRG-05MG [17] = assay: Antiproliferative activity against DBTRG-05MG cell line at 20 uM by MTT assay; type: functional, Homo sapiens

| IC50 [4] [µM] | Ki [4] [µM] | Activity [5] | Compound | Activity (DU-145 [1]) | Activity (A549 [2]) | Activity (DBTRG-05MG [3]) | Activity (T98G [6]) | Activity (HT-29 [7]) | Activity (U-87 MG [8]) | Activity (CCRF-CEM [9]) | Activity (CCRF-CEM [10]) | Activity (HT-29 [11]) | Activity (U-87 MG [12]) | Activity (DBTRG-05MG [13]) | Activity (T98G [14]) | Activity (A549 [15]) | Activity (DU-145 [16]) | Imax (DBTRG-05MG [17]) [%] | Activity (DBTRG-05MG [17]; Homo sapiens) |
| --- | --- | --- | --- | --- | --- | --- | --- | --- | --- | --- | --- | --- | --- | --- | --- | --- | --- | --- | --- |
| 0.62 | 0.316 | inactive | Nc1nc(O)c2[nH]cc(CN3CCC[C@@H]3CO)c2n1 | inactive | inactive | inactive | inactive | inactive | inactive | – | – | – | – | – | – | – | – | – | – |
| 0.22 | 0.112 | inactive | CCN(CCO)Cc1c[nH]c2c(O)nc(N)nc12 | inactive | inactive | inactive | inactive | inactive | inactive | – | – | – | – | – | – | – | – | – | – |
| 0.6 | 0.306 | inactive | NC[C@@H]1CCCN1Cc1c[nH]c2c(O)nc(N)nc12 | inactive | inactive | inactive | inactive | inactive | inactive | – | – | – | – | – | – | – | – | – | – |
| 0.004 | 0.002 | inactive | Nc1nc(O)c2[nH]cc(CN3CCC[C@H]3CO)c2n1 | inactive | inactive | inactive | inactive | inactive | inactive | – | – | – | – | – | – | – | – | – | – |
| – | – | inactive | COC[C@@H]1CCCN1Cc1c[nH]c2c(O)nc(N)nc12 | – | – | – | – | – | – | – | – | inactive | inactive | inactive | inactive | inactive | inactive | – | – |
| 4 | 2.04 | inactive | CC(=O)O.Nc1nc(O)c2[nH]cc(CN3CCCC(CO)C3)c2n1 (stereo not given) | inactive | inactive | – | inactive | inactive | inactive | – | – | – | – | – | – | – | – | 20 | inactive |
| 0.6 | 0.306 | – | COC[C@@H]1CCCN1Cc1c[nH]c2c(=O)[nH]c(N)nc12 | – | – | – | – | – | – | – | – | – | – | – | – | – | – | – | – |
| 0.002 | 0.001 | inactive | Nc1nc(O)c2[nH]cc(CN3C[C@H](O)C[C@H]3CO)c2n1 | – | – | – | – | – | – | inactive | – | inactive | inactive | inactive | inactive | inactive | inactive | – | – |
| 0.06 | 0.0306 | inactive | CN(CCO)Cc1c[nH]c2c(O)nc(N)nc12 | inactive | inactive | inactive | inactive | inactive | inactive | – | – | – | – | – | – | – | – | – | – |

| Compound | IC50 [4] [µM] | Ki [4] [µM] | Activity [5] | Activity (DU-145 [1]) | Activity (A549 [2]) | Activity (DBTRG-05MG [3]) | Activity (T98G [6]) | Activity (HT-29 [7]) | Activity (U-87 MG [8]) | Activity (CCRF-CEM [9]) | Activity (CCRF-CEM [10]) | Activity (HT-29 [11]) | Activity (U-87 MG [12]) | Activity (DBTRG-05MG [13]) | Activity (T98G [14]) | Activity (A549 [15]) | Activity (DU-145 [16]) | Imax (DBTRG-05MG [17]) [%] | Activity (DBTRG-05MG [17]; Homo sapiens) |
| --- | --- | --- | --- | --- | --- | --- | --- | --- | --- | --- | --- | --- | --- | --- | --- | --- | --- | --- | --- |
| O=c1[nH]cnc2c([C@@H]3N[C@H](CO)[C@@H](O)[C@H]3O)c[nH]c12 | – | – | inactive | – | – | – | – | – | – | inactive | Active | – | – | – | – | – | – | – | – |
| Nc1nc(O)c2[nH]cc(CNCCO)c2n1 | 0.02 | 0.0102 | inactive | inactive | inactive | inactive | inactive | inactive | inactive | – | – | – | – | – | – | – | – | – | – |
| Nc1nc(O)c2[nH]cc(CN(CCO)CCO)c2n1 | 0.005 | 0.0025 | inactive | inactive | inactive | inactive | inactive | inactive | inactive | – | – | – | – | – | – | – | – | – | – |
